Values of other authors as cited in patent US20110075702A1, “THERMAL SENSING EQUIPMENT AND THERMAL SENSING PROCESS” (JOHNSON CONTROLS TECHNOLOGY COMPANY, priority 2007, published 2011).

Key:
[1] = @ 20° C. (68° F.)

NFPA Fire (NFPA fire diamond Flammability Value): 2
NFPA Health (NFPA fire diamond Health Value): 1
NFPA Reactivity (NFPA fire diamond Reactivity Value): 0
Solubility in Water [1]: 77 mg/mL
SMILES: CC(=O)OCC(C)OC(C)=O (stereo not shown) [THERMAL FLUID #2, propylene glycol diacetate]
